From PubChem BioAssay AID2305 (GlaxoSmithKline (GSK), 2010)

The molecules below were run on P. falciparum 3D7 growth, pLDH absorbance (assay: blood-stage malaria parasite growth potency – strain 3D7, dose response (AID 2305)).
In the case of `CCN(c1ccccc1)S(=O)(=O)c1ccc(OC)c(NC(=O)c2cccc(C(F)(F)F)c2)c1`, the IC50 is reported as 880 nM.
Work on `Cc1ccccc1C1CCN(C2CCC(NC(=O)c3ccc(-c4cccc(C(F)(F)F)c4)o3)CC2)CC1` (stereo not given) yielded an IC50 of 350 nM.
For `COc1c(CCNCCCCNCCc2cc(Cl)c3ccccc3c2OC)cc(Cl)c2ccccc12`, the IC50 was 170 nM.
Molecule `COc1ccc2nccc(NN=Cc3ccc([N+](=O)[O-])cc3)c2c1` has an IC50 of 710 nM.
In the case of `CC(C)C[C@H](NC(=O)c1cc2ccccc2s1)C(=O)N[C@H]1CCN(Cc2ccc(OC3CCN(C)C3)c(Cl)c2)C1` (stereo not given in full), the IC50 is reported as 780 nM.
In the case of `COCCNCc1cccc(-c2ccc3c(Nc4ccc(Oc5cccnc5)cc4)ccnc3c2)c1`, the IC50 is reported as 180 nM.
Molecule `CC(=O)Oc1c(C2CCN(CCCCNC(=O)c3ccc(NC(=O)c4ccc(Cl)cc4)cc3)CC2)ccc2ccccc12` has an IC50 of 880 nM.
`CC(C)OCCCNC(=O)c1nc(-c2cccc(C(F)(F)F)c2)sc1C(C)C` showed an IC50 of 1160 nM.
In the case of `O=S(=O)(NC1CCN(c2ccnc3cc(Cl)ccc23)C1)c1ccc(F)cc1` (stereo not given), the IC50 is reported as 470 nM.
`O=C(Nc1ccc(C(F)(F)F)cc1)c1ccc(S(=O)(=O)NC2CCN(Cc3ccccc3)C2)cc1` (stereo not given) showed an IC50 of 620 nM.
With `Cc1cc(Nc2ncc(C#N)c(Nc3ccccc3C(N)=O)n2)ccc1N1CCN(C)CC1` the IC50 was 10 nM.
For `COc1cc(NC(=O)c2ccc(-c3ccc(C(C)=O)cc3)s2)ccc1OCCN1CCCC1`, the IC50 was 150 nM.
`CN(CCCc1c[nH]c2ccccc12)CC1CCN(C(=O)/C=C/c2ccc(Cl)c(Cl)c2)CC1` was tested, and the IC50 was 750 nM.
Molecule `COc1ccc2nccc([C@@H](O)CN3CCC(NC(=O)c4cc5c(Cl)cc(Cl)cc5[nH]4)CC3)c2c1` has an IC50 of 230 nM.
For `Cc1c2ccc(N(C)c3ccnc(Nc4ccc5c(c4)nc(NC(C)C)n5C)n3)cc2nn1C`, the IC50 was 160 nM.
Work on `CCCCCC(C)C(C)c1cc(O)c2c3c(c(=O)oc2c1)CN(Cc1ccccc1)CC3` (stereo not given) yielded an IC50 of 600 nM.
Molecule `O=C(/C=C/c1cccs1)NC1CCC(CN2CCC(c3c[nH]c4ccccc34)CC2)CC1` (stereo not given) has an IC50 of 1050 nM.
With `c1ccc2c(NCCCCCCNc3c4ccccc4nc4ccccc34)c3ccccc3nc2c1` the IC50 was 750 nM.
Molecule `N#Cc1ccc(-c2ccc(C(=O)NC3CCN(CCN4CCC(c5cn(CCOC6CCCCO6)c6ccccc56)CC4)CC3)cc2)cc1` (stereo not given) has an IC50 of 600 nM.
Work on `COc1cccc(C(=O)NC(NC(=S)Nc2ccc(OC)cc2[N+](=O)[O-])C(Cl)(Cl)Cl)c1` (stereo not given) yielded an IC50 of 760 nM.
Work on `CCC(=O)Nc1ccc(Nc2nc(C)cc(N3CCCC3)n2)cc1` yielded an IC50 of 1320 nM.
With `O=C(NC1CCCC1)c1ccc(N2CCC(NCc3cccc(C(F)(F)F)c3)CC2)cc1` the IC50 was 1330 nM.
`Cc1cccc2[nH]c(-c3ccc(-c4ccc(NC(=O)C(C)CN(C)C)cc4)s3)nc12` (stereo not given) showed an IC50 of 410 nM.
`Fc1ccc2nc(-c3ccc(-c4ccc(CNCc5ccccc5)cc4)cc3)[nH]c2c1` showed an IC50 of 280 nM.
In the case of `CCOc1ccc(-c2nonc2NC(=O)c2ccco2)cc1OCC`, the IC50 is reported as 750 nM.
For `CCNC(=O)Nc1ccc(-c2cnc(N)c(-c3nc4ccc(OC)cc4[nH]3)c2)cc1`, the IC50 was 500 nM.
With `N#Cc1ccc(-c2ccc(OCC(O)CN3CCCN(Cc4cccc(O)c4Cl)CC3)cc2)cc1` (stereo not given) the IC50 was 690 nM.
`COCCNCc1cccc(-c2ccccc2CN(C(=O)c2ccc3c(c2)OCO3)c2ccc(OC)cc2)c1` was tested, and the IC50 was 1110 nM.
`CN(C)c1cccc(CN2CC=C(c3c[nH]c4ccc(Cl)cc34)CC2)c1` was tested, and the IC50 was 660 nM.
With `CCCCc1cc(=O)oc2cc(C)cc(OCc3ccccc3F)c12` the IC50 was 1030 nM.
`CCCCCCCCc1c(C)[nH]c(C)c(C#N)c1=O` was tested, and the IC50 was 400 nM.
In the case of `O=C(NCC1CCN(CCN2CCC(c3cn(CCO)c4ccccc34)CC2)CC1)c1ccc(-c2ccc(C(F)(F)F)cc2)cc1`, the IC50 is reported as 440 nM.
`CC(Cc1ccc([N+](=O)[O-])cc1)NCC(O)c1cccc(C(F)(F)F)c1` (stereo not given) showed an IC50 of 900 nM.
`COC(=O)c1cccc(CNCc2ccc(-c3cccc(-c4nc5ccc(C(F)(F)F)cc5[nH]4)c3)cc2)c1` was tested, and the IC50 was 160 nM.
Work on `COc1ccc(CC(=O)Nc2ccc(Nc3nc(C)cc(N4CCCC4)n3)cc2)cc1` yielded an IC50 of 1110 nM.
`CC(C)(C)c1ccc(CNC(=O)c2ccc(CNC3CCC(N)CC3)s2)cc1` (stereo not given) gave an IC50 of 530 nM.
`O=C1NC(c2ccccc2)C2(CCN(CC(O)COc3cccc4ncccc34)CC2)O1` (stereo not given) was tested, and the IC50 was 740 nM.
For `O=C(Nc1ccc(Cn2ncc(N3CCCNCC3)c(Cl)c2=O)cc1)Nc1ccc(OCc2ccccc2)cc1`, the IC50 was 820 nM.
Molecule `CCN(C)C(=O)n1ncc2c3c(N)nc(N)nc3ccc21` has an IC50 of 180 nM.
Work on `O=C(Nc1ccc(Cn2nc(Cl)c(N3CCNCC3)cc2=O)cc1)Nc1ccc(-c2ccccc2)cc1` yielded an IC50 of 750 nM.
`O=C(Nc1ccc(C(=O)OC[C@@H]2CCCN3CCCC[C@H]23)cc1)c1ccc(Cl)c(Cl)c1` gave an IC50 of 720 nM.
Molecule `COc1ccc(C(=O)Nc2ccc(-c3ccc([N+](=O)[O-])cc3)cc2)cc1CCCN(C)C` has an IC50 of 800 nM.
With `CCc1ccc(NC(=O)c2ccc(CN3CCCN(CC4CCCCC4)CC3)cc2)cc1` the IC50 was 710 nM.
Work on `Oc1ccc2c(CNCCc3ccccc3)c(O)ccc2c1CNCCc1ccccc1` yielded an IC50 of 100 nM.
For `Cc1ccc(NC(=O)NC2CCN(c3ccnc4cc(Cl)ccc34)CC2)cc1`, the IC50 was 320 nM.
`CC1=C(C(=O)Nc2cc3cn[nH]c3cc2F)C(c2ccc(Cl)c(NS(C)(=O)=O)c2)CC(=O)N1` (stereo not given) gave an IC50 of 480 nM.
Molecule `O=C(Nc1ccc(N2CCN(c3ncccc3C(F)(F)F)CC2)nc1)c1cccs1` has an IC50 of 1190 nM.
With `CCCc1nc2c(N3CCCN(C(=O)NC4CCCCC4)CC3)cccc2n1Cc1ccccn1` the IC50 was 1160 nM.
In the case of `O=C(NCC1CCC(C(=O)NCc2cccc3ccccc23)CC1)c1ccc(O)c(-c2ccc(Cl)c(Cl)c2)c1` (stereo not given), the IC50 is reported as 750 nM.
`COc1cccc(CC(C)NCC(O)c2cccc(Cl)c2)c1` (stereo not given) was tested, and the IC50 was 1270 nM.
`Cc1ccoc1C(=O)Nc1cccc(-c2cccc(-c3nc4ccccc4[nH]3)c2)c1` showed an IC50 of 1220 nM.
With `O=C(Nc1ccc(-c2nc3ccccc3[nH]2)cc1)C1CCN(Cc2cccc(F)c2F)CC1` the IC50 was 1100 nM.
Molecule `CCc1ccc(C2CCN(CCCCNC(=O)c3ccc(-c4ccc(Cl)cc4)cc3)CC2)c(O)c1` has an IC50 of 890 nM.
With `Cn1cncc1CNCc1ccc(-c2cccc(-c3nc4ccccc4[nH]3)c2)cc1` the IC50 was 230 nM.
With `Cc1cc(C)cc(OCC(O)CN(CCN2CCOCC2)C(=O)Nc2ccc(Br)cc2)c1` (stereo not given) the IC50 was 1030 nM.
Molecule `COc1ccc(-c2ccccc2CNC2Cc3ccccc3C2)cc1S(=O)(=O)NCCN1CCCC1` has an IC50 of 870 nM.
With `Cc1cc(NN=Cc2ccc([N+](=O)[O-])cc2)c2ccc(F)cc2n1` the IC50 was 890 nM.
For `O=C(O)c1cc(OCC(O)COc2ccc(O)c(C(=O)O)c2)ccc1O`, the IC50 was 230 nM.
In the case of `CC(Cc1ccc(SC(C)C)cc1)NCC(O)c1cccc(Cl)c1` (stereo not given), the IC50 is reported as 830 nM.
`CC1(C)[C@H]2C=C(CN3CCC(NC(=O)Nc4ccc(Cl)c(Cl)c4)CC3)[C@@H]1CC2` showed an IC50 of 760 nM.
For `COc1ccc2nccc([C@@H](O)CN3CCC(NC(=O)c4ccc(C5(C(F)(F)F)N=N5)cc4)CC3)c2c1`, the IC50 was 930 nM.
With `COc1ccc2nc(C)cc(NN=Cc3ccc([N+](=O)[O-])o3)c2c1` the IC50 was 700 nM.
In the case of `Cc1ccc2nc(-c3cc(-c4cccc(CCN5CCOCC5)c4)cnc3N)[nH]c2c1`, the IC50 is reported as 170 nM.
In the case of `Cc1cnc(NCCc2ccc(F)cc2)nc1NCCC(=O)Nc1ccccc1`, the IC50 is reported as 950 nM.
For `COc1cccc(NC(=O)COc2ccc(C(=O)Nc3nc4ccccc4[nH]3)cc2)c1`, the IC50 was 970 nM.
`C[C@H]1CN(Cc2cccc(-c3cc(CNC(=O)c4cccc(CN5CCN(CCOc6ccccc6)CC5)c4)ccc3F)c2)CCN1` was tested, and the IC50 was 1110 nM.
`Cn1cncc1C(=O)Nc1cccc(-c2cccc(-c3nc4ccc(C(F)(F)F)cc4[nH]3)c2)c1` was tested, and the IC50 was 200 nM.
With `O=C1COC(c2ccccc2)(c2ccccc2)CN1CC1CCN(Cc2ccc(O)cc2Cl)C1` (stereo not given) the IC50 was 1000 nM.
`N#Cc1cccc(C(O)CN(Cc2ccccc2)Cc2ccccc2)c1` (stereo not given) gave an IC50 of 1270 nM.
Work on `O=C1CCCN1CCCNCc1ccc(-c2cccc(-c3nc4ccc(C(F)(F)F)cc4[nH]3)c2)cc1` yielded an IC50 of 190 nM.
